Values quoted from earlier work, collected in US6372715B1, “Use of erythropoientin and iron preparations for producing pharmaceutical combination preparations for treating rheumatic diseases” (Roche Diagnostics GmbH, priority 1997, dated 2002).

In the case of `[Fe]` [elementary iron], the oral iron resorption (oral) is listed as “about 1 mg per day” and the “oral iron resorption under extreme loading” value (oral administration of about 300 mg Fe(III)/day) is listed as “less than 3 mg per day”.
